# In patent publication US20130302442A1, “METHODS OF USING (4S,4AS,5AR,12AS)-4-DIMETHYLAMINO-3,10,12,12A-TETRAHYDROXY-7-[(METHOXY(METHYL)AMINO)-METHYL]-1,11-DIOXO-1,4,4A,5,5A,6,11,12A-OCTAHYDRO-NAPHTHACENE-2-CARBOXYLIC ACID AMIDE” (priority 2012, published 2013):
# Read-outs that look alike come from different tables or passages of the source.
# Experiments:
# Bifidobacterium bifidum = experiment: In vitro MIC testing against anaerobic bacteria; format: cell-based; conditions: ATCC15696; Bifidobacterium bifidum 3965, ATCC 15696
# Bifidobacterium brevi = experiment: In vitro MIC testing against anaerobic bacteria; format: cell-based; conditions: ATCC15698; Bifidobacterium brevi 3967, ATCC 15698
# Bifidobacterium infantis = experiment: In vitro MIC testing against anaerobic bacteria; format: cell-based; conditions: ATCC15702; Bifidobacterium infantis 3966, ATCC 15702
# Bifidobacterium longum = experiment: In vitro MIC testing against anaerobic bacteria; format: cell-based; conditions: ATCC15707; Bifidobacterium longum 3968, ATCC 15707
# Clostridium perfringens = experiment: microbe, parasite or virus in culture; format: cell-based
# Clostridium difficile = experiment: In vitro MIC testing against anaerobic bacteria; format: cell-based
# Lactobacillus plantarum = experiment: In vitro MIC testing against anaerobic bacteria; format: cell-based; conditions: Lactiplantibacillus plantarum, ATCC39268; Lactobacillus plantarum 2791, ATCC 39268
# [1] = system: Peptostreptococcus anaerobius; experiment: In vitro MIC testing against anaerobic bacteria; format: cell-based
# Propionibacterium acnes = experiment: In vitro MIC testing against anaerobic bacteria; format: cell-based; conditions: Cutibacterium acnes, read-out: MIC
# [2] = system: Streptococcus intermedius; experiment: In vitro MIC testing against anaerobic bacteria; format: cell-based; conditions: ATCC27335; Streptococcus intermedius 1203, ATCC 27335
# Bacteroides ovatus = experiment: In vitro MIC testing against anaerobic bacteria; format: cell-based
# [3] = system: Bacteroides thetaiotaomicron; experiment: In vitro MIC testing against anaerobic bacteria; format: cell-based
# Bacteroides vulgatus = experiment: In vitro MIC testing against anaerobic bacteria; format: cell-based
# Eikenella corrodens = experiment: In vitro MIC testing against anaerobic bacteria; format: cell-based; conditions: Eikenella corrodens, ATCC43278
# [4] = system: Fusobacterium necrophorum; experiment: In vitro MIC testing against anaerobic bacteria; format: cell-based; conditions: ATCC25286; Fusobacterium necrophorum 3963, ATCC 25286; read-out: MIC
# Fusobacterium nucleatum = experiment: In vitro MIC testing against anaerobic bacteria; format: cell-based; conditions: ATCC25586; Fusobacterium nucleatum 3962, ATCC 25586; read-out: MIC
# [5] = system: Porphyromonas asaccharolytica; experiment: In vitro MIC testing against anaerobic bacteria; format: cell-based
# [6] = system: Prevotella melaninogenica; experiment: In vitro MIC testing against anaerobic bacteria; format: cell-based; conditions: Prevotella melaninogenica 3443, read-out: MIC
# Prevotella spp. = experiment: In vitro MIC testing against anaerobic bacteria; format: cell-based
# Veillonella parvula = experiment: In vitro MIC testing against anaerobic bacteria; format: cell-based; conditions: ATCC17745; Veillonella parvula 1272, ATCC 17745
# P. granulosum = experiment: In vitro MIC testing, antibacterial spectrum of activity; format: cell-based; conditions: P. granulosum [clinical isolates] (3 isolates)
# P. avidum = experiment: as above; format: cell-based; conditions: P. avidum [clinical isolates] (4 isolates)
# S. epidermidis = experiment: as above; format: cell-based, Staphylococcus epidermidis; conditions: for MIC50 / MIC90: Staphylococcus epidermidis; for MIC50: read-out: MIC50; for MIC90: read-out: MIC90
# S. pneumoniae = experiment: as above; format: cell-based, Streptococcus pneumoniae
# S. pyogenes = experiment: as above; format: cell-based
# S. agalactiae = experiment: as above; format: cell-based
# [7] = system: Streptococcus spp. [Group C]; experiment: as above; format: cell-based; conditions: Streptococcus spp. [Group C] (30 isolates); read-out: MIC50
# E. faecium = experiment: as above; format: cell-based; conditions: for MIC / MIC50 / MIC90: Enterococcus faecium; for MIC50: read-out: MIC50; for MIC90: read-out: MIC90
# E. coli = experiment: as above; format: cell-based; conditions: E. coli [tetS] (7 isolates)
# K. pneumoniae = experiment: as above; format: cell-based; conditions: Klebsiella pneumoniae
# P. mirabilis = experiment: as above; format: cell-based; conditions: Proteus mirabilis; P. mirabilis (30 isolates)
# P. aeruginosa = experiment: as above; format: cell-based; conditions: Pseudomonas aeruginosa; P. aeruginosa (11 isolates)
# [8] = S. epidermidis [MRSE] (32 isolates)
# [9] = S. epidermidis [MSSE] (31 isolates)
compound,measurement,setting,value
"CN(C)c1ccc(O)c2c1C[C@H]1C[C@H]3[C@H](N(C)C)C(O)=C(C(N)=O)C(=O)[C@@]3(O)C(O)=C1C2=O [Minocycline, minocycline]",MIC,Bifidobacterium bifidum,0.25 µg/mL
same,MIC,Bifidobacterium brevi,0.25 µg/mL
same,MIC,Bifidobacterium infantis,0.25 µg/mL
same,MIC,Bifidobacterium longum,1 µg/mL
same,MIC,Clostridium perfringens,8 µg/mL
same,MIC,Clostridium difficile; Clostridioides difficile,0.03 µg/mL
same,MIC,Clostridium difficile; Clostridium difficile 3584,0.03 µg/mL
same,MIC,Lactobacillus plantarum,0.5 µg/mL
same,MIC,[1]; Peptostreptococcus anaerobius 3526,1 µg/mL
same,MIC,[1]; Peptostreptococcus anaerobius 3531,2 µg/mL
same,MIC,"Propionibacterium acnes; ATCC11829, Propionibacterium acnes 1286, ATCC 11829",0.5 µg/mL
same,MIC,Propionibacterium acnes; Propionibacterium acnes 1713,0.06 µg/mL
same,MIC,[2],0.25 µg/mL
same,MIC,"Bacteroides ovatus; Bacteroides ovatus 3503, read-out: MIC",4 µg/mL
same,MIC,"Bacteroides ovatus; Bacteroides ovatus 3508, read-out: MIC",0.03 µg/mL
same,MIC,[3]; Bacteroides thetaiotaomicron 3399,0.03 µg/mL
same,MIC,[3]; Bacteroides thetaiotaomicron 3496,8 µg/mL
same,MIC,Bacteroides vulgatus; Bacteroides vulgatus 3494,8 µg/mL
same,MIC,"Bacteroides vulgatus; Phocaeicola vulgatus, Bacteroides vulgatus 3389, read-out: MIC",8 µg/mL
same,MIC,Eikenella corrodens,0.03 µg/mL
same,MIC,[4],0.06 µg/mL
same,MIC,Fusobacterium nucleatum,0.06 µg/mL
same,MIC,"[5]; Porphyromonas asaccharolytica 3552, read-out: MIC",8 µg/mL
same,MIC,"[5]; Porphyromonas asaccharolytica 3557, read-out: MIC",4 µg/mL
same,MIC,[6],1 µg/mL
same,MIC,Prevotella spp.; Prevotella spp. 3564,0.25 µg/mL
same,MIC,Prevotella spp.; Prevotella spp. 3568,0.25 µg/mL
same,MIC,Veillonella parvula,0.5 µg/mL
same,MIC Range,P. granulosum,0.25 to 0.5 µg/mL
same,MIC Range,P. avidum,0.25 to 2 µg/mL
same,MIC Range,S. epidermidis; [8],0.06 to 0.5 µg/mL
same,MIC Range,S. epidermidis; [9],0.06 to 0.25 µg/mL
same,MIC50,S. epidermidis; [8],0.12 µg/mL
same,MIC90,S. epidermidis; [8],0.25 µg/mL
same,MIC50,S. epidermidis; [9],0.06 µg/mL
same,MIC90,S. epidermidis; [9],0.25 µg/mL
same,MIC Range,S. pneumoniae; S. pneumoniae [tetS] (5 isolates),0.25-0.25 μg/mL
same,MIC50,"S. pneumoniae; Streptococcus pneumoniae, S. pneumoniae [PSSP] (32 isolates), read-out: MIC50",0.06 µg/mL
same,MIC90,"S. pneumoniae; Streptococcus pneumoniae, S. pneumoniae [PSSP] (32 isolates), read-out: MIC90",0.12 µg/mL
same,MIC Range,S. pyogenes; S. pyogenes [tetS] (5 isolates),0.25 to 0.5 µg/mL
same,MIC,"S. pyogenes; Streptococcus pyogenes, S. pyogenes strain PBS # 330, tetO",8 µg/mL
same,MIC50,"S. pyogenes; Streptococcus pyogenes, S. pyogenes (32 isolates), read-out: MIC50",0.06 µg/mL
same,MIC Range,S. agalactiae; S. agalactiae [tetS] (3 isolates),0.5-0.5 μg/mL
same,MIC50,"S. agalactiae; Streptococcus agalactiae, S. agalactiae (31 isolates), read-out: MIC50",16 µg/mL
same,MIC90,"S. agalactiae; Streptococcus agalactiae, S. agalactiae (31 isolates), read-out: MIC90",16 µg/mL
same,MIC50,[7],0.06 µg/mL
same,MIC Range,E. faecium; E. faecium [tetR] (6 isolates),2 to 32 µg/mL
same,MIC Range,E. faecium; E. faecium [tetS] (4 isolates),0.25 to 0.5 µg/mL
same,MIC,"E. faecium; E. faecium strain PBS # 965, tetM",8 µg/mL
same,MIC,"E. faecium; E. faecium strain PBS # 1323, tetK",2 µg/mL
same,MIC,"E. faecium; E. faecium strain PBS # 1324, tetO",2 µg/mL
same,MIC50,E. faecium; E. faecium [VRE] (30 isolates),0.25 µg/mL
same,MIC90,E. faecium; E. faecium [VRE] (30 isolates),16 µg/mL
same,MIC50,E. faecium; E. faecium [VSE] (32 isolates),0.12 µg/mL
same,MIC90,E. faecium; E. faecium [VSE] (32 isolates),16 µg/mL
same,MIC Range,E. coli,0.5 to 4 µg/mL
same,MIC50,K. pneumoniae; K. pneumoniae (31 isolates),4 µg/mL
same,MIC90,K. pneumoniae; K. pneumoniae (31 isolates),> 32 µg/mL
same,MIC,"K. pneumoniae; K. pneumoniae strain PBS # 266, tetD",64 µg/mL
same,MIC50,P. mirabilis,16 µg/mL
same,MIC90,P. mirabilis,> 32 µg/mL
same,MIC50,P. aeruginosa,> 32 µg/mL
same,MIC90,P. aeruginosa,> 32 µg/mL
